# Experimental data published in the supplement of paper PMC10307832.
# Assays:
# Assay in all cases: relative viability (nuclei count vs DMSO), 5 days (fraction); higher = more cells survive
# [1] = compound: C1=CC2=NC=CN=C2C=C1/C=C/3\C(=O)NC(=O)S3 + CC1(C)CCC(c2ccc(Cl)cc2)=C(CN2CCN(c3ccc(C(=O)NS(=O)(=O)c4ccc(N[C@H](CCN5CCOCC5)CSc5ccccc5)c(S(=O)(=O)C(F)(F)F)c4)cc3)CC2)C1 [Navitoclax] (partner 0.5 µM)
# How it was run: (§1)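 After 5 days of treatment, lung cancer cells in 1536-well plates were fixed and stained in a single step (final 0.05% Triton X-100, 1% formaldehyde, 1 ug/ml Hoechst) and their nuclei counted on 4× images. Treatment had been applied by pin tool the day after seeding as one drug alone or as a fixed anchor-drug dose with five library-drug doses (not always all listed) in √10 steps. Relative viability is the nuclei count of treated wells divided by that of vehicle wells, and values are medians of duplicate plates.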
# [2] = compound: C1=CC2=NC=CN=C2C=C1/C=C/3\C(=O)NC(=O)S3 + N=C(N)NC(=N)NCCc1ccccc1 [Phenformin] (partner 250 µM)
# How it was run: as §1
# [3] = compound: CCN1CCN(c2ccc(Nc3cc(N(C)C(=O)Nc4c(Cl)c(OC)cc(OC)c4Cl)ncn3)cc2)CC1 [BGJ398] + CCNC(=O)c1noc(-c2cc(C(C)C)c(O)cc2O)c1-c1ccc(CN2CCOCC2)cc1 [Luminespib] (partner 0.01 µM)
# How it was run: as §1
# [4] = compound: CCN1CCN(c2ccc(Nc3cc(N(C)C(=O)Nc4c(Cl)c(OC)cc(OC)c4Cl)ncn3)cc2)CC1 [BGJ398] + Cc1nc(NC(=O)N2CCC[C@H]2C(N)=O)sc1-c1ccnc(C(C)(C)C(F)(F)F)c1 [Alpelisib] (partner 2 µM)
# How it was run: as §1
Cell Line,relative viability ([1]; first compound 0.02 µM),relative viability ([1]; first compound 0.2 µM),relative viability ([1]; first compound 0.6325 µM),relative viability ([1]; first compound 2 µM),relative viability ([2]; first compound 0.02 µM),relative viability ([2]; first compound 0.06325 µM),relative viability ([2]; first compound 0.2 µM),relative viability ([2]; first compound 0.6325 µM),relative viability ([2]; first compound 2 µM),relative viability ([3]; first compound 0.01 µM),relative viability ([3]; first compound 0.03162 µM),relative viability ([3]; first compound 0.1 µM),relative viability ([3]; first compound 0.3162 µM),relative viability ([3]; first compound 1 µM),relative viability ([4]; first compound 0.01 µM),relative viability ([4]; first compound 0.03162 µM),relative viability ([4]; first compound 0.1 µM),relative viability ([4]; first compound 0.3162 µM),relative viability ([4]; first compound 1 µM),relative viability ([1]; first compound 0.06325 µM)
NCI-H1734,0.799,0.897,0.78,0.877,0.392,0.35,0.384,0.343,0.279,0.178,0.179,0.22,0.171,0.17,0.678,0.654,0.725,0.676,0.742,
NCI-H1755,0.881,1.03,0.975,0.936,0.578,0.625,0.588,0.62,0.562,0.498,0.363,0.339,0.606,0.417,0.861,0.965,1.05,0.908,0.889,0.947
NCI-H1792,0.597,0.564,0.658,0.401,0.351,0.177,0.465,0.341,0.113,0.406,0.542,0.344,0.401,0.277,0.634,0.755,0.898,0.706,0.456,0.621
NCI-H1793,0.509,0.496,0.36,0.83,0.416,0.32,0.452,0.334,0.322,0.167,0.229,0.175,0.163,0.196,0.676,,0.955,0.696,0.549,0.439
NCI-H1915,0.757,0.806,0.732,0.797,0.354,0.415,0.378,0.371,0.375,0.675,0.826,0.852,0.688,0.784,0.981,1.05,1.1,1.08,1.05,0.796
NCI-H1944,1.02,1.08,0.95,1.04,0.187,0.188,0.199,0.204,0.155,0.687,0.714,0.787,0.722,0.716,0.689,0.816,0.899,0.805,0.845,1.05
NCI-H1975,0.998,1.04,0.974,0.981,0.406,0.448,0.408,0.402,0.312,0.218,0.179,0.204,0.237,0.261,0.601,0.642,0.745,0.667,0.61,1.12
NCI-H1993,0.759,0.921,0.956,0.743,0.492,0.529,0.513,0.557,0.599,0.962,0.916,1.08,0.954,0.737,0.689,0.623,0.642,0.746,0.7,0.982
NCI-H2009,1.2,1.15,1.21,1.23,0.507,0.454,0.508,0.482,0.461,1.06,1.05,1.03,1.02,0.972,1.13,1.19,1.11,1.17,1.09,1.2
NCI-H2023,1.01,1.02,1.02,0.978,0.441,0.452,0.438,0.426,0.329,0.627,0.849,0.739,0.851,0.809,0.576,0.644,0.534,0.586,0.579,1.11
NCI-H2085,1.09,1.17,1.13,1.08,0.747,0.721,0.716,0.671,0.65,0.308,0.485,0.564,0.498,0.422,0.96,1.01,0.93,0.975,0.921,0.975
NCI-H2087,0.88,1.07,1.04,0.96,0.428,0.33,0.42,0.493,0.502,0.177,0.186,0.173,0.203,0.133,0.99,1.17,1.05,1.19,1.18,1.2
NCI-H2126,0.739,0.914,0.842,0.727,0.503,0.581,0.567,0.534,0.339,0.894,0.973,0.926,0.891,0.832,0.78,0.746,0.735,0.766,0.853,0.909
NCI-H2170,0.527,0.607,0.563,0.501,0.425,0.375,0.441,0.426,0.423,0.736,0.811,0.724,0.795,1.24,0.815,0.756,0.938,0.734,0.853,0.521
NCI-H2228,1.15,1.44,0.671,0.607,0.281,0.329,0.445,0.361,0.213,0.111,0.141,0.152,0.139,0.128,0.609,0.616,0.776,0.718,0.696,0.868
NCI-H2347,0.756,0.904,0.863,0.734,0.352,0.322,0.422,0.394,0.375,0.396,0.666,0.746,0.471,0.453,1.01,1.04,1.01,1.13,1.08,0.443
